{
  "source": "patent US7750181B2",
  "about": "“Antiproliferative agents” (EPX Research Limited, priority 2002, dated 2010)",
  "key": {"[1]": {"tested_on": "MAC15 tumour, murine colon cancer", "test": "Tumour growth inhibition, MAC15 tumour transplanted s.c.", "type": "in vivo, NMRI mice", "details": "intraperitoneal; for Tumour weight: individual animals", "description": "(§1) Pure strain NMRI mice (age 6-8 weeks) from our inbred colony were used for transplanting MAC (murine colon cancer) tumours, M5076 reticulum cell sarcoma (ovarian) were transplanted in BDF1 mice purchased from Harlan, Bicester, U.K. Animals were fed on RM3E diet (Lillco-England) and water ad libitum.\nThe tumour is routinely passaged as an ascites. Approximately 2×10^5 cells were transplanted subcutaneously in saline in a volume of 0.2 ml. Mice were randomised in groups of 5-7 animals per group. Untreated or vehicle controls were included. Treatment commenced two days after transplant. Body weight was recorded daily. The effects of chemotherapy were assessed between 7-9 days after transplant. Mice were killed and the effects measured by the differences in tumour weights and expressed as: % T/C, i.e. […] Body weight changes were recorded in order to assess toxicity."}, "[2]": {"tested_on": "M5076 tumour, ovarian cancer (reticulum cell sarcoma)", "test": "Tumour growth inhibition, M5076 tumour transplanted i.m.", "type": "in vivo, BDF1 mice", "details": "400 mg/kg body weight, intraperitoneal, days of treatment 1-11", "source_text": "as §1\n(§2) Approximately 2×2 mm of MAC13 tumour fragments were transplanted subcutaneously in the inguinal region via a trocar while the M5076 was homogenised and 1×10^6 cells transplanted intramuscularly in the inguinal region. Tumour bearing mice were randomised in groups of 5-7 animals per group. Treatment commenced one day after transplant for M5076 and two days for MAC13. Untreated or vehicle controls were included. Daily weights were recorded. Chemotherapy effects were assessed on day 14 or thereabouts depending on the tumour sizes and condition of the animals. Mice were killed and the effects of the chemotherapy were assessed by the differences in tumour weights and expressed as: % T/C, i.e. inhibition=100-Treated weight/Control weight×100% Body weight changes were recorded in order to assess toxicity. MAC15A"}, "[3]": {"tested_on": "MAC 13 tumour, murine colon cancer", "test": "Tumour growth inhibition, MAC 13 tumour transplanted s.c.", "type": "in vivo, NMRI mice", "details": "400 mg/kg body weight, intraperitoneal, days of treatment 1-5", "source_text": "as §1, §2"}, "[4]": {"tested_on": "H460 non-small cell lung cancer human xenograft", "test": "Antitumour test, H460 NSCLC human xenograft", "type": "in vivo, Nu nude mice", "details": "500 mg/kg, i.p. days 0-4", "description": "(§3) Fragments of the non-small cell lung cancer, H460, and DLD-1 colon cancer human xenografts were transplanted sub-cutaneously in both flanks of 14 female Nu nude mice from an inbred colony (B7K Universal, Hull, UK). Mice received CRM diet (SDS, WItham, UK) and water ad libitum. All experiments were carried out under a project license issued by the UK Home Office, and UKCCCR guidelines were followed throughout.\n(§4) Therapy commenced once tumours had grown to a sufficient size to be measured accurately (minimum 4 mm×4 mm), which was 10 days for H460 and 19 days for DLD-1. 10 tumours grew sufficiently to use in 7 mice for both the test and untreated groups.\nIn the case of H460, the compound of Example 4 was administered at a concentration of 500 mg/kg body weight/day, intraperitoneally (i.p.), daily for 5 days (designated days 0-4). Animals were monitored daily for any toxicity effects, and tumours were measured, and weights recorded daily over the period of therapy and then on day 7 (untreated and test groups), and day 8 (test group). On day 7 for the untreated group, and day 8 for the test group, the largest tumour diameter was greater than the maximum permitted 17 mm, and subjects were then euthenised by UK Home Office Schedule 1 methods.\n(§5) In both cases tumour volumes were assessed by caliper measurements of 2 perpendicular diameters and the volumes estimated using the following equation: Volumes−(a^2×b)/2, where a is the smaller, and b the larger diameter of the two. The effects of the therapy were determined from the difference in tumour volume-doubling time between treated and control groups, and the significance of any tumour growth delay determined using the Mann-Whitney U Test."}, "[5]": {"tested_on": "DLD-1 colon cancer human xenograft", "test": "Antitumour test, DLD-1 colon cancer human xenograft", "type": "in vivo, Nu nude mice", "details": "500 mg/kg, i.p. days 0-4", "description": "as §3, §4\n[…], and assessing tumour growth compared to a control untreated group until the tumours have reached the maximum permitted size (day 16 control and tested group).\nas §5"}, "[6]": {"details": "300 mg/kg body weight, days of treatment 1-5"}, "[7]": {"details": "400 mg/kg body weight, days of treatment 1-5"}, "[8]": {"details": "RTV2 = relative tumour volume doubling"}},
  "note": "Several values for one entry are separate records, joined by “and”; a condition that tells them apart may be missing. Equal entries are not always repeated.",
  "data": [
    {"smiles": "CN(C=O)C(=O)/C(Cl)=C(/Cl)C(=O)O", "note": "[Example 3, (Z)-2,3-dichloro-4-[N-formyl-N-methylamino]-4-oxo-but-2-enoic acid]", "values": [
      {"measurement": "% Tumour growth inhibition", "setting": "[1]; [6]", "value": 68, "unit": "%"},
      {"measurement": "Mean tumour weight", "setting": "[1]; [6]", "value": 0.195, "unit": "g"},
      {"measurement": "% Tumour growth inhibition", "setting": "[1]; [7]", "value": 81, "unit": "%"},
      {"measurement": "Mean tumour weight", "setting": "[1]; [7]", "value": 0.117, "unit": "g"},
      {"measurement": "Tumour weight", "setting": "[1]; 300 mg/kg body weight, days of treatment 1-5, 300 mg/kg", "value": "0.194 g and 0.201 g and 0.190 g and 0.176 g and 0.214 g"},
      {"measurement": "Tumour weight", "setting": "[1]; 400 mg/kg body weight, days of treatment 1-5, 400 mg/kg", "value": "0.074 g and 0.094 g and 0.190 g and 0.096 g and 0.132 g"},
      {"measurement": "% Tumour growth inhibition", "setting": "[2]", "value": 97, "unit": "%"},
      {"measurement": "Mean tumour weight", "setting": "[2]", "value": 0.008, "unit": "g"},
      {"measurement": "Tumour weight", "setting": "[2]; individual animals, 400 mg/kg", "value": "0 g (5×) and 0.052 g"},
      {"measurement": "% Tumour growth inhibition", "setting": "[3]", "value": 92, "unit": "%"},
      {"measurement": "Mean tumour weight", "setting": "[3]", "value": 0.031, "unit": "g"},
      {"measurement": "Tumour weight", "setting": "[3]; individual animals, 400 mg/kg", "value": "0.053 g and 0.045 g and 0.030 g and 0.023 g and 0.0 g and 0.036 g"}
    ]},
    {"smiles": "CN1C(=O)C(Cl)=C(Cl)C(=O)C1O", "note": "(centres unmarked) [Example 4, 3,4-dichloro-6-hydroxy-1-methyl-2,5-dioxo-1.6-dihydropyridine]", "values": [
      {"measurement": "% Tumour growth inhibition", "setting": "[1]; 500 mg/kg body weight, day 1-5", "value": 86, "unit": "%"},
      {"measurement": "Mean tumour weight", "setting": "[1]; 500 mg/kg body weight, day 1-5", "value": 0.056, "unit": "g"},
      {"measurement": "Tumour weight", "setting": "[1]; 500 mg/kg body weight, day 1-5, 500 mg/kg", "value": "0.076 g and 0.033 g and 0.0 g (3×) and 0.090 g and 0.060 g and 0.134 g and 0.114 g"},
      {"measurement": "Maximum % weight loss", "setting": "[4]", "value": 6.9, "unit": "%"},
      {"measurement": "Median time RTV2", "setting": "[4]", "value": 6.4, "unit": "days"},
      {"measurement": "Mean time to RTV2", "setting": "[4]; [8]", "value": 6.2, "unit": "days"},
      {"measurement": "Growth delay", "setting": "[4]; versus untreated controls", "value": 3.9, "unit": "days"},
      {"measurement": "Maximum % weight loss", "setting": "[5]", "value": 4.3, "unit": "%"},
      {"measurement": "Median time RTV2", "setting": "[5]", "value": 9.8, "unit": "days"},
      {"measurement": "Mean time to RTV2", "setting": "[5]; [8]", "value": 9.9, "unit": "days"},
      {"measurement": "Growth delay", "setting": "[5]; versus untreated controls", "value": 6.7, "unit": "days"}
    ]}
  ]
}
